Target: T1, human LXRβ (Homo sapiens, UniProt P55055)
T1 construct: expressed in transfected cells; host or cells: HEK293 cells (ATCC CRL-1573), transient transfection with pFA-hLXRβ/GAL4 and pUAS
T1 sequence (P55055 222-460 limits assumed): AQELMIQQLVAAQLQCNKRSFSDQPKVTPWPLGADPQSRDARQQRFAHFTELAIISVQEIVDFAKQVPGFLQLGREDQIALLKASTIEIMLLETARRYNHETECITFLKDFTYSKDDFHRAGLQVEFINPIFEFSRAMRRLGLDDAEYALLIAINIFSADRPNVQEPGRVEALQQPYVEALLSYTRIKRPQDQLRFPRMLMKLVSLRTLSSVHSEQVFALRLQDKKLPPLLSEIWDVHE
Assay: Assay for Transcriptional Activity of LXRβ (GAL4-hLXRβ LBD luciferase reporter, transient transfection)
Assay type: cell-based
Settings: HEK293 cells transfected with pFA-hLXRβ/GAL4 and pUAS, 24 hours; for Emax: fold value in comparison with the control (DMSO-treated group); for EC50: increase of transcriptional activity of LXRβ, average of three independent tests
From the text: The ligand-binding domain (LBD) cDNA of human LXRβ was inserted into an expression vector (pFA, Stratagene, USA) site adjacent to the yeast GAL4 transcription factor DNA binding domain to prepare an expression construct (pFA-hLXRβ/GAL4) (Willey et al., Genes & Development 9 1033-1045 (1995). The GAL4-responsive luciferase reporter plasmid, i.e., pUAS (Stratagene, USA), contained five copies of the GAL4 response element placed adjacent to the promoter and the luciferase reporter gene. The pFA-hLXRβ/GAL4 and pUAS were introduced into mammalian cells through transient transfection, followed by measuring the transcriptional activity of LXRβ.
HEK293 cells (human kidney cells, sATCC, CRL-1573) were incubated at a T-75 flask containing a DMEM supplemented with 10% fetal bovine serum (FBS) in a 37° C., until they reach about 70˜80% confluency. The culture media containing the cells was added to each well of a 96-well plate in a density of 5×10^4 cells per well. The pFA-hLXRβ/GAL4 and pUAS was transfected to the cells using a cationic-lipid transfection reagent (Lipofectamine™, Invitrogen), through culturing at 37° C. for 3 hours for transient transfection according to the manufacturer's instruction. The test compounds were dissolved in dimethyl sulfoxide (DMSO) in the concentrations of 50, 30, 10, 3, 1, 0.3, 0.1, 0.03, and 0.01 μM and then cells were treated with the prepared compound-containing solution (100 μl). The cells were incubated at 37° C. for 24 hours. After removal of the medium from each well, the lysis buffer (25 mM Tricine pH7.8, 2 mM DTT, 2 mM EGTA, 10% glycerol, 1% Triton X-100) was added with the amount of 20 μl per each well, and the plate was stirred at room temperature for 15 minutes. The luciferase reagent (prepared by adding 10 ml of the luciferase buffer (Promega) to 1 vial of the luciferase substrate (Promega)) was added to each well with the amount of 100 μl per well, followed by assaying with a luminometer according to the manufacturer's instruction.
The dose-response curve for calculating the EC50 values of the test compounds on the increase of transcriptional activity of LXRβ was prepared using the known LXR agonist (i.e., N-(2,2,2-trifluoro-ethyl)-N-[4-(2,2,2-trifluoro-1-hydroxy-1-trifluoromethyl-ethyl)-phenyl]-benzenesulfonamide) as a positive control and the vehicle (DMSO) as a negative control. The dose-response curve was produced from the 9-point curve having different concentrations at a 1/2 log unit. The EC50 value of a test compound, which is defined as a concentration for initiating the reaction corresponding to the half value between the Top value (i.e., the maximum value) and the Bottom value (baseline), was calculated according to the following equation. Y=Bottom+(Top-Bottom)/(1+10^((log EC50-X)*Hill Slope)).
In the above equation, Y is the observed value; X is the log concentration; Hill Slope is the slope of the curve; and Top and Bottom are the maximum value of test compound and the baseline value, respectively.
The following tables 1 and 2 show the EC50 values of the test compounds measured as in the above. In the tables 1 and 2, each EC50 value represents an average value obtained from three independent tests.

Compound	Emax [fold]	EC50 [nM]
1-(2,4-difluoro-phenyl)-5-(4-fluoro-3′-methanesulfonyl-biphenyl-3-yl)-3-pentafluoroethyl-4,5-dihydroxy-1H-pyrazole [Example 141]	127	18
CS(=O)(=O)c1cccc(-c2ccc(C3CC(C(F)(F)C(F)(F)F)=NN3c3ccccc3Cl)cc2)c1 (centres unmarked) [Example 5, 1-(2-chloro-phenyl)-5-[3′-(methylsulfonyl)-biphenyl-4-yl]-3-pentafluoroethyl-4,5-dihydro-1H-pyrazole]	48	330
CSc1cccc(-c2ccc(C3CC(C(F)(F)C(F)(F)F)=NN3Cc3ccccc3Cl)cc2)c1 (centres unmarked) [Example 15, 1-(2-chloro-benzyl)-5-(3′-methylsulfanyl-biphenyl-4-yl)-3-pentafluoroethyl-4,5-dihydro-1H-pyrazole]	23	14800
CS(=O)(=O)c1cccc(-c2ccc(C3CC(C(F)(F)C(F)(F)F)=NN3c3ccc(F)cc3F)cc2)c1 (centres unmarked) [Example 18, 1-(2,4-difluoro-phenyl)-5-(3′-methanesulfonyl-biphenyl-4-yl)-3-pentafluoroethyl-4,5-dihydro-1H-pyrazole]	103	692
CSc1ccc(-c2cccc(C3CC(C(F)(F)C(F)(F)F)=NN3c3ccc(F)cc3F)c2)cc1 (centres unmarked) [Example 30, 1-(2,4-difluoro-phenyl)-5-(4′-methylsulfanyl-biphenyl-3-yl)-3-pentafluoroethyl-4,5-dihydro-1H-pyrazole]	66	8570
CSc1ccc(-c2cccc(C3CC(C(F)(F)C(F)(F)F)=NN3c3ccc(Cl)cc3F)c2)cc1 (centres unmarked) [Example 31, 1-(4-chloro-2-fluoro-phenyl)-5-(4′-methylsulfanyl-biphenyl-3-yl)-3-pentafluoroethyl-4,5-dihydro-1H-pyrazole]	28	5660
CS(=O)(=O)c1ccc(-c2cccc(C3CC(C(F)(F)C(F)(F)F)=NN3c3ccc(Cl)cc3Cl)c2)cc1 (centres unmarked) [Example 41, 1-(2,4-dichloro-phenyl)-5-(4′-methanesulfonyl-biphenyl-3-yl)-3-pentafluoroethyl-4,5-dihydro-1H-pyrazole]	89	1660
C[S+]([O-])c1ccc(-c2cccc(C3CC(C(F)(F)C(F)(F)F)=NN3c3ccc(Cl)cc3Cl)c2)cc1 (centres unmarked) [Example 42, 1-(2,4-dichloro-phenyl)-5-(4′-methanesulfinyl-biphenyl-3-yl)-3-pentafluoroethyl-4,5-dihydro-1H-pyrazole]	103	593
CS(=O)(=O)c1ccc(-c2cccc(C3CC(C(F)(F)C(F)(F)F)=NN3c3ccc(F)cc3F)c2)cc1 (centres unmarked) [Example 51, 1-(2,4-difluoro-phenyl)-5-(4′-methanesulfonyl-biphenyl-3-yl)-3-pentafluoroethyl-4,5-dihydro-1H-pyrazole]	61	2480
C[S+]([O-])c1ccc(-c2cccc(C3CC(C(F)(F)C(F)(F)F)=NN3c3ccc(F)cc3F)c2)cc1 (centres unmarked) [Example 52, 1-(2,4-difluoro-phenyl)-5-(4′-methanesulfinyl-biphenyl-3-yl)-3-pentafluoroethyl-4,5-dihydro-1H-pyrazole]	56	546
CS(=O)(=O)c1ccc(-c2cccc(C3CC(C(F)(F)C(F)(F)F)=NN3c3ccc(Cl)cc3F)c2)cc1 (centres unmarked) [Example 53, 1-(4-chloro-2-fluoro-phenyl)-5-(4′-methanesulfonyl-biphenyl-3-yl)-3-pentafluoroethyl-4,5-dihydro-1H-pyrazole]	61	746
CS(=O)(=O)c1ccc(-c2cccc(C3CC(C(F)(F)C(F)(F)F)=NN3Cc3ccccc3Cl)c2)cc1 (centres unmarked) [Example 54, 1-(2-chloro-benzyl)-5-(4′-methanesulfonyl-biphenyl-3-yl)-3-pentafluoroethyl-4,5-dihydro-1H-pyrazole]	17	6430
Fc1ccc(N2N=C(C(F)(F)C(F)(F)F)CC2c2cccc(-c3ccc(F)nc3)c2)c(F)c1 (centres unmarked) [Example 55, 1-(2,4-difluoro-phenyl)-5-[3-(6-fluoro-pyridin-3-yl)-phenyl]-3-pentafluoroethyl-4,5-dihydro-1H-pyrazole]	73	4900
COc1ccc(-c2cccc(C3CC(C(F)(F)C(F)(F)F)=NN3c3ccc(F)cc3F)c2)cn1 (centres unmarked) [Example 56, 1-(2,4-difluoro-phenyl)-5-[3-(6-methoxy-pyridin-3-yl)-phenyl]-3-pentafluoroethyl-4,5-dihydro-1H-pyrazole]	78	2220
Fc1ccc(N2N=C(C(F)(F)C(F)(F)F)CC2c2cccc(-c3cncnc3)c2)c(F)c1 (centres unmarked) [Example 57, 1-(2,4-difluoro-phenyl)-3-pentafluoroethyl-5-[3-(5-pyrimidyl)-phenyl]-4,5-dihydro-1H-pyrazole]	39	4770
CC(C)(C)OC(=O)N1CC=C(c2cccc(C3CC(C(F)(F)C(F)(F)F)=NN3c3ccc(F)cc3F)c2)CC1 (centres unmarked) [Example 60, 5-[3-(1-BOC-1,2,3,6-tetrahydropyridin-4-yl)-phenyl]-1-(2,4-difluoro-phenyl)-3-pentafluoroethyl-4,5-dihydro-1H-pyrazole]	11	20100
CS(=O)(=O)N1CC=C(c2cccc(C3CC(C(F)(F)C(F)(F)F)=NN3c3ccc(F)cc3F)c2)CC1 (centres unmarked) [Example 62, 1-(2,4-difluoro-phenyl)-5-[3-(1-methanesulfonyl-1,2,3,6-tetrahydropyridin-4-yl)-phenyl]-3-pentafluoroethyl-4,5-dihydro-1H-pyrazole]	59	1160
CN(C)C(=O)N1CC=C(c2cccc(C3CC(C(F)(F)C(F)(F)F)=NN3c3ccc(F)cc3F)c2)CC1 (centres unmarked) [Example 64, 1-(2,4-difluoro-phenyl)-5-[3-(1-dimethylcarbamoyl-1,2,3,6-tetrahydropyridin-4-yl)-phenyl]-3-pentafluoroethyl-4,5-dihydro-1H-pyrazole]	48	1300
CS(=O)(=O)c1cc(F)c(-c2cccc(C3CC(C(F)(F)C(F)(F)F)=NN3c3ccc(F)cc3F)c2)cc1F (centres unmarked) [Example 68, 5-(2′,5′-difluoro-4′-methanesulfonyl-biphenyl-3-yl)-1-(2,4-difluoro-phenyl)-3-pentafluoroethyl-4,5-dihydro-1H-pyrazole]	75	192
CS(=O)(=O)c1ccc(-c2cccc(C3CC(C(F)(F)C(F)(F)F)=NN3c3ccc(F)cc3F)c2)cc1C(F)(F)F (centres unmarked) [Example 69, 1-(2,4-difluoro-phenyl)-5-(4′-methanesulfonyl-3′-trifluoromethyl-biphenyl-3-yl)-3-pentafluoroethyl-4,5-dihydro-1H-pyrazole]	83	1100
CS(=O)(=O)c1ccc(-c2cccc(C3CC(C(F)(F)C(F)(F)F)=NN3c3ccc(F)cc3F)c2)cc1C#N (centres unmarked) [Example 70, 5-[3′-cyano-4′-(methanesulfonyl)-biphenyl-3-yl]-1-(2,4-difluoro-phenyl)-3-pentafluoroethyl-4,5-dihydro-1H-pyrazole]	62	466
Cc1ncccc1-c1cccc(C2CC(C(F)(F)C(F)(F)F)=NN2c2ccc(F)cc2F)c1 (centres unmarked) [Example 71, 1-(2,4-difluoro-phenyl)-5-(3-(2-methyl-pyridin-3-yl)-phenyl)-3-pentafluoroethyl-4,5-dihydro-1H-pyrazole]	20	1230

Reference: US9376420B2 (YUHAN CORPORATION, priority 2012, dated 2016)
